We go through 16 compounds from ChEMBL document CHEMBL1122818, “Synthesis and biological activity of certain 6-substituted and 2,6-disubstituted 2'-deoxytubercidins prepared via the stereospecific sodium salt glycosylation procedure” (J Med Chem, 1985).

A short description of data set [1]: Toxic level was evaluated; None. The class given is ADME.
In data set [2] the test system is Human respirovirus 3. As to the kind of experiment: In vitro antiviral activity was tested against, parainfluenza type 3 (Para 3) virus. The conditions noted are these: read-out: ED50 (the source's name). The class given is functional.
For data set [3], the system named is Human alphaherpesvirus 2. As to the kind of experiment: In vitro antiviral activity was tested against, herpes simplex type 2 virus (HSV-2). It is filed as functional. As to conditions: read-out: ED50 (the source's name).
Data set [4] relates to Vaccinia virus. As to the kind of experiment: In vitro antiviral activity was tested against, vaccinia virus (VV). The class given is functional. As to conditions: Orthopoxvirus vaccinia; read-out: ED50 (the source's name).
Data set [5] relates to Measles morbillivirus. As to the kind of experiment: In vitro antiviral activity was tested against, measles virus. The class given is functional. As to conditions: read-out: ED50 (the source's name).
Data set [6] can be described thus: Toxic level was evaluated. The class given is ADME.
Data set [7] deals with P388. Nature of the data set: In vitro inhibitory effect was tested for cytostatic activity on the growth of lymphoid neoplasm P388 leukemic cell lines. It is filed as functional. As to conditions: Mus musculus, read-out: ID50 (the source's name).
The subject of data set [8] is L1210. Nature of the data set: In vitro inhibitory effect was tested for cytostatic activity on the growth of murine leukemic L1210 cell lines. It is filed as functional. The conditions noted are these: Mus musculus, read-out: ID50 (the source's name).
The test system of data set [9] is Human respirovirus 3. As to the kind of experiment: In vitro antiviral activity was tested against, parainfluenza type 3 (Para 3) virus. As to conditions: read-out: ED50 (the source's name).
Data set [10] concerns Vaccinia virus. As to the kind of experiment: In vitro antiviral activity was tested against vaccinia virus (VV). As to conditions: Orthopoxvirus vaccinia; read-out: ED50 (the source's name). The class given is functional.
Data set [11] concerns Human alphaherpesvirus 2. As to the kind of experiment: In vitro antiviral activity was tested against herpes simplex type 2 virus (HSV-2). It is filed as functional. The conditions noted are these: read-out: ED50 (the source's name).
The subject of data set [12] is Measles morbillivirus. As to the kind of experiment: In vitro antiviral activity was tested against measles virus. It is filed as functional. The conditions noted are these: read-out: ED50 (the source's name).
Data set [13] is described as follows: Toxic level was evaluated; b=Too insoluble to test. The class given is ADME.
For data set [14], the system named is Measles morbillivirus. As to the kind of experiment: In vitro antiviral activity was tested against, measles virus; b=Too insoluble to test. It is filed as functional, organism-based.
Data set [15] concerns Vaccinia virus. Nature of the data set: In vitro antiviral activity was tested against, vaccinia virus (VV); b=Too insoluble to test. As to conditions: Orthopoxvirus vaccinia. The class given is functional, organism-based.
For data set [16], the system named is Human alphaherpesvirus 2. Nature of the data set: In vitro antiviral activity was tested against, herpes simplex type 2 virus (HSV-2); b=Too insoluble to test. It is filed as functional, organism-based.
Data set [17] concerns Human respirovirus 3. As to the kind of experiment: In vitro antiviral activity was tested against, parainfluenza type 3 (Para 3) virus; b=Too insoluble to test. It is filed as functional, organism-based.

Turning to `NC(=O)c1ncn([C@@H]2O[C@H](CO)[C@@H](O)[C@H]2O)n1` [RIBAVIRIN], in data set [1], the Toxic level entry was “Non-toxic”. The EC50 in [2] worked out at 160 µM; in [3] it was 190 µM; in [4] it was 85 µM; in data set [5], 30 µM.

For `Cc1nc(N)c2ccn([C@H]3C[C@H](O)[C@@H](CO)O3)c2n1`, the EC50 in data set [2] was over 5000 µM; in [3], 1600 µM; in data set [4], 3100 µM; in [5], 920 µM. Moreover, the Toxic level in data set [6] came out at 1.6 mM.

Regarding `Nc1ncnc2c1ccn2[C@H]1C[C@H](O)[C@@H](CO)O1` [2'-Deoxytubercidin], the values for the IC50 in data set [7] and in data set [8] were 49 µM and 80 µM, respectively. The EC50 in data set [2] is 660 µM; in data set [3], 50 µM; in [4], 160 µM; in [5], 210 µM. Moreover, the Toxic level in [6] was found to be 1.6 mM.

On to `Cc1nc(N)c2cc(Cl)n([C@H]3C[C@H](O)[C@@H](CO)O3)c2n1`, for which the EC50 in data set [2] is over 1600 µM; in data set [3], 500 µM; in [4] it was 840 µM; in data set [5], 360 µM. Also, in data set [6], the Toxic level came out at 0.5 mM.

With `OC[C@H]1O[C@@H](n2ccc3c(Cl)ncnc32)C[C@@H]1O`, the IC50 in data set [7] is 73 µM; in [8] it was 59 µM. Besides, the EC50 was 960 µM in data set [2], 650 µM in [3], over 5000 µM in [4] and 89 µM in data set [5]. The compound further showed a Toxic level in data set [6] of 1.6 mM.

On to `OC[C@H]1O[C@@H](n2ccc3cncnc32)C[C@@H]1O`, for which the EC50 in data set [2] was over 5000 µM; in data set [3], 1400 µM; in [4] it was over 5000 µM; in data set [5], 250 µM. This compound also came in with a Toxic level in [6] of 5 mM.

Take `Cc1cc2cncnc2n1[C@H]1C[C@H](O)[C@@H](CO)O1`: in [6], the Toxic level was found to be 5 mM. Besides, the EC50 amounted to 1100 µM in data set [9], 1000 µM in data set [10], 74 µM in [11] and 300 µM in data set [12].

Regarding `OC[C@H]1O[C@@H](n2ccc3c(S)ncnc32)C[C@@H]1O`, the EC50 in data set [2] is over 5000 µM; in [3], 160 µM; in [4] it was 1100 µM; in data set [5] it was 27 µM. Moreover, in data set [6], the Toxic level came out at 5 mM.

For the compound `Cc1cc2c(N)ncnc2n1[C@H]1C[C@H](O)[C@@H](CO)O1`, the EC50 is 500 µM in data set [2], 2100 µM in data set [3], 1000 µM in [4] and 500 µM in data set [5]. The Toxic level in data set [6] worked out at 5 mM.

Consider `Nc1nc(Cl)nc2c1ccn2[C@H]1C[C@H](O)[C@@H](CO)O1`, for which the EC50 was over 5000 µM in data set [2], over 5000 µM in data set [3], 1100 µM in data set [4] and over 5000 µM in data set [5]. Besides, in data set [6], the Toxic level came to 0.5 mM.

As to `CSc1nc(Cl)c2cc(C)n([C@H]3C[C@H](O)[C@@H](CO)O3)c2n1`, the Toxic level result in data set [13] is “Too insoluble”. The ED50 result in [14], in [15], in data set [16] and in [17] was “Too insoluble” each time.

Take `Nc1nc(Cl)nc2c1ncn2[C@H]1C[C@H](O)[C@@H](CO)O1` [CLADRIBINE]: the IC50 in [7] was determined as 0.032 µM; in data set [8] it was 0.026 µM. The EC50 in [2] is over 500 µM; in data set [3] it was 5 µM; in data set [4] it was 5 µM; in data set [5], over 500 µM. Moreover, the Toxic level in data set [6] was found to be 0.005 mM.

Turning to `CSc1ncc2cc(C)n([C@H]3C[C@H](O)[C@@H](CO)O3)c2n1`, the EC50 in [2] came out at 1100 µM; in [3], 2900 µM; in data set [4] it was 840 µM; in [5], 95 µM. For the same compound, in data set [6], the Toxic level is over 5 mM.

For the compound `CSc1nc(N)c2cc(Cl)n([C@H]3C[C@H](O)[C@@H](CO)O3)c2n1`, the EC50 is 340 µM in data set [2], 580 µM in data set [3], over 500 µM in data set [4] and 100 µM in data set [5]. For the same compound, in data set [6], the Toxic level was determined as 0.5 mM.

`CSc1nc(N)c2cc(C)n([C@H]3C[C@H](O)[C@@H](CO)O3)c2n1`: the EC50 in data set [2] was over 5000 µM; in data set [3], 1300 µM; in [4], 1000 µM; in [5] it was 250 µM. Also, the Toxic level in data set [6] is 1.6 mM.

For the compound `Nc1ncnc2c1cc(Cl)n2[C@H]1C[C@H](O)[C@@H](CO)O1`, the EC50 is 1600 µM in data set [2], 1100 µM in data set [3], 330 µM in data set [4] and 360 µM in data set [5]. For the same compound, the Toxic level in data set [6] is 1.6 mM.
